Measurements as given in patent US11254663B2 (BRISTOL-MYERS SQUIBB COMPANY, priority 2019, dated 2022).
pEC50: −log10 of the molar value.

The compounds below were run against FXR (Homo sapiens (Human), UniProt Q96RI1) (assay: transient human FXR/Gal4-luciferase reporter assay). Settings: not given.
Assay type: cell-based
Procedure, shortened: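 Compound exposure ran overnight at 37 °C and activity was measured as luminescence with Steady-Glo reagent. The cells were a HEK293 line stably expressing firefly luciferase under five Gal4 response elements. They were transiently transfected, one night beforehand, with a plasmid encoding Gal4 DNA-binding domain fused to the human FXR ligand-binding domain.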

Sequence of FXR (Q96RI1 262-486): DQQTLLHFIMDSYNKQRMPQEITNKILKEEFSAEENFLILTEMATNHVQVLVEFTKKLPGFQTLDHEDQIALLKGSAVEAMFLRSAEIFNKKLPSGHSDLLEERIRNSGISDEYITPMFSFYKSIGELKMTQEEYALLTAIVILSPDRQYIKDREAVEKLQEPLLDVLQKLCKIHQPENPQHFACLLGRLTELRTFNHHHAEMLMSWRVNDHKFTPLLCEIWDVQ

| SMILES | pEC50 |
| --- | --- |
| CCOc1ncc(-c2cccc(N(CC34CCC(c5noc(C6(C)COC6)n5)(CC3)CC4)C(=O)[C@H]3C[C@@](C)(O)C3)c2)cn1 [Example 519, (1S,3S)—N-(3-(2-ethoxypyrimidin-5-yl)phenyl)-3-hydroxy-3-methyl-N-((4-(5-(3-methyloxetan-3-yl)-1,2,4-oxadiazol-3-yl)bicyclo[2.2.2]octan-1-yl)methyl)cyclobutane-1-carboxamide] | 6.30 |

Same assay, conditions: Gal4-hFXR fusion construct, HEK293 reporter cells; response relative to 8 μM GW-4064

| SMILES | pEC50 |
| --- | --- |
| CC(C)Oc1ccc(-c2cc(N(CC34CCC(c5noc(C6(F)CC6)n5)(CC3)CC4)C(=O)[C@H]3C[C@](O)(C(F)(F)F)C3)ccc2F)cc1 [Example 581, (cis)-N-(6-fluoro-4′-isopropoxy-[1,1′-biphenyl]-3-yl)-N-((4-(5-(1-fluorocyclopropyl)-1,2,4-oxadiazol-3-yl)bicyclo[2.2.2]octan-1-yl)methyl)-3-hydroxy-3-(trifluoromethyl)cyclobutane-1-carboxamide] | 7.13 |
| CC(C)(O)C12CCC(c3ccnc(N(CC45CCC(c6nc(C7CC7)no6)(CC4)CC5)C(=O)OC(C)(C)C(F)(F)F)n3)(CC1)CC2 [Example 666, 1,1,1-trifluoro-2-methylpropan-2-yl ((4-(3-cyclopropyl-1,2,4-oxadiazol-5-yl)bicyclo[2.2.2]octan-1-yl)methyl)(4-(4-(2-hydroxypropan-2-yl)bicyclo[2.2.2]octan-1-yl)pyrimidin-2-yl)carbamate] | 6.30 |
| CC(C)Oc1ccc(-c2ccnc(N(CC34CCC(c5noc(C(C)(C)F)n5)(CC3)CC4)C(=O)OC(C)(C)C(F)(F)F)n2)cc1 [Example 636, 1,1,1-trifluoro-2-methylpropan-2-yl ((4-(5-(2-fluoropropan-2-yl)-1,2,4-oxadiazol-3-yl)bicyclo[2.2.2]octan-1-yl)methyl)(4-(4-isopropoxyphenyl)pyrimidin-2-yl)carbamate] | 7.17 |
| CC(C)(O)c1ccc(-c2ccnc(N(CC34CCC(c5ccc(C(C)(F)F)cn5)(CC3)CC4)C(=O)OC(C)(C)C(F)(F)F)c2)cc1 [Example 605, 1,1,1-trifluoro-2-methylpropan-2-yl((4-(5-(1,1-difluoroethyl)pyridin-2-1)bicyclo[2.2.2]octan-1-yl)methyl)(4-(4-(2-hydroxypropan-2-yl)phenyl)pyridin-2-yl)carbamate] | 7.28 |
| O=C(N(CC12CCC(c3nc(C4CC4)no3)(CC1)CC2)c1cccc(-c2nc(C(F)(F)F)ccc2F)c1)C12CC(F)(C1)C2 [Example 293, N-((4-(3-cyclopropyl-1,2,4-oxadiazol-5-yl)bicyclo[2.2.2]octan-1-yl)methyl)-3-fluoro-N-(3-(3-fluoro-6-(trifluoromethyl)pyridin-2-yl)phenyl)bicyclo[1.1.1]pentane-1-carboxamide] | 6.17 |
| CCOc1ncc(-c2cccc(N(CC34CCC(c5nc(C6CC6)no5)(CC3)OC4)C(=O)C34CC(F)(C3)C4)c2)cn1 [Example 353, N-((1-(3-cyclopropyl-1,2,4-oxadiazol-5-yl)-2-oxabicyclo[2.2.2]octan-4-yl)methyl)-N-(3-(2-ethoxypyrimidin-5-yl)phenyl)-3-fluorobicyclo[1.1.1]pentane-1-carboxamide] | 6.48 |
| O=C(N(CC12CCC(c3nc(C4CC4)no3)(CC1)CC2)c1cccc(-c2ccc3nncn3c2)c1)C12CC(F)(C1)C2 [Example 323, N-(3-([1,2,4]triazolo[4,3-a]pyridin-6-yl)phenyl)-N-((4-(3-cyclopropyl-1,2,4-oxadiazol-5-yl)bicyclo[2.2.2]octan-1-yl)methyl)-3-fluorobicyclo[1.1.1]pentane-1-carboxamide] | 5.79 |
| CC(C)c1noc(C23CCC(CN(C(=O)C45CC(F)(C4)C5)c4cccc(-c5ccc(NS(=O)(=O)C6CC6)cc5)c4)(CC2)CC3)n1 [Example 379, N-(4′-(cyclopropanesulfonamido)-[1,1′-biphenyl]-3-yl)-3-fluoro-N-((4-(3-isopropyl-1,2,4-oxadiazol-5-yl)bicyclo[2.2.2]octan-1-yl)methyl)bicyclo[1.1.1]pentane-1-carboxamide] | 6.88 |
| COc1ccc(-c2cccc(N(CC34CCC(c5cnc(C(F)(F)F)nc5)(CC3)OC4)C(=O)C34CC(F)(C3)C4)c2)cc1 [Example 420, 3-fluoro-N-(4′-methoxy-[1,1′-biphenyl]-3-yl)-N-((1-(2-(trifluoromethyl)pyrimidin-5-yl)-2-oxabicyclo[2.2.2]octan-4-yl)methyl)bicyclo[1.1.1]pentane-1-carboxamide] | 6.10 |
| CCOc1ncc(-c2cccc(N(CC34CCC(c5ccc(C6(C#N)CC6)cc5)(CC3)OC4)C(=O)C34CC(F)(C3)C4)c2)cn1 [Example 352, N-((1-(4-(1-cyanocyclopropyl)phenyl)-2-oxabicyclo[2.2.2]octan-4-yl)methyl)-N-(3-(2-ethoxypyrimidin-5-yl)phenyl)-3-fluorobicyclo[1.1.1]pentane-1-carboxamide] | 6.78 |
| CC(C)S(=O)(=O)Nc1ccc(-c2cccc(N(CC34CCC(c5noc(C(C)(C)C)n5)(CC3)CC4)C(=O)C34CC(F)(C3)C4)c2)cc1 [Example 448, N-((4-(5-(tert-butyl)-1,2,4-oxadiazol-3-yl)bicyclo[2.2.2]octan-1-yl)methyl)-3-fluoro-N-(4′-((1-methylethyl)sulfonamido)-[1,1′-biphenyl]-3-yl)bicyclo[1.1.1]pentane-1-carboxamide] | 6.56 |
| O=C(N(CC12CCC(c3nc(C4CC4)no3)(CC1)CC2)c1cccc(-c2nc3cc(F)ccc3o2)c1)C12CC(F)(C1)C2 [Example 559, N-((4-(3-Cyclopropyl-1,2,4-oxadiazol-5-yl)bicyclo[2.2.2]octan-1-yl)methyl)-3-fluoro-N-(3-(5-fluorobenzo[d]oxazol-2-yl)phenyl)bicyclo[1.1.1]pentane-1-carboxamide] | 6.66 |
| O=C(N(CC12CCC(c3nc(C4CC4)no3)(CC1)CC2)c1cccc(-c2ccc3c(c2)OCO3)c1)C12CC(F)(C1)C2 [Example 255, N-(3-(benzo[d][1,3]dioxol-5-yl)phenyl)-N-((4-(3-cyclopropyl-1,2,4-oxadiazol-5-yl)bicyclo[2.2.2]octan-1-yl)methyl)-3-fluorobicyclo[1.1.1]pentane-1-carboxamide] | 7.16 |
| CC(C)(C)c1nc(C23CCC(CN(C(=O)C45CC(F)(C4)C5)c4cccc(-c5ccc6[nH]c(=O)oc6c5)c4)(CC2)CC3)no1 [Example 447, N-((4-(5-(tert-butyl)-1,2,4-oxadiazol-3-yl)bicyclo[2.2.2]octan-1-yl)methyl)-3-fluoro-N-(3-(2-oxo-2,3-dihydrobenzo[d]oxazol-6-yl)phenyl)bicyclo[1.1.1]pentane-1-carboxamide] | 7.06 |
| O=C(N(CC12CCC(c3noc(C4(F)CC4)n3)(CC1)CC2)c1cccc(C2CC2)c1)C12CC(F)(C1)C2 [Example 573, N-(3-cyclopropylphenyl)-3-fluoro-N-((4-(5-(1-fluorocyclopropyl)-1,2,4-oxadiazol-3-yl)bicyclo[2.2.2]octan-1-yl)methyl)bicyclo[1.1.1]pentane-1-carboxamide] | 7.36 |
| COCc1ccc(-c2cccc(N(CC34CCC(c5nc(C6CC6)no5)(CC3)CC4)C(=O)C34CC(F)(C3)C4)c2)cc1 [Example 273, N-((4-(3-cyclopropyl-1,2,4-oxadiazol-5-yl)bicyclo[2.2.2]octan-1-yl)methyl)-3-fluoro-N-(4′-(methoxymethyl)-[1,1′-biphenyl]-3-yl)bicyclo[1.1.1]pentane-1-carboxamide] | 7.28 |
| CC(C)(C)c1nc(C23CCC(CN(C(=O)C45CC(F)(C4)C5)c4cccc(-c5ccc6c(c5)OC(F)(F)O6)c4)(CC2)CC3)no1 [Example 457, N-((4-(5-(tert-butyl)-1,2,4-oxadiazol-3-yl)bicyclo[2.2.2]octan-1-yl)methyl)-N-(3-(2,2-difluorobenzo[d][1,3]dioxol-5-yl)phenyl)-3-fluorobicyclo[1.1.1]pentane-1-carboxamide] | 6.84 |
| O=C(N(CC12CCC(c3nc(C4CC4)no3)(CC1)CC2)c1cccc(-c2ccc3ncsc3c2)c1)C12CC(F)(C1)C2 [Example 277, N-(3-(benzo[d]thiazol-6-yl)phenyl)-N-((4-(3-cyclopropyl-1,2,4-oxadiazol-5-yl)bicyclo[2.2.2]octan-1-yl)methyl)-3-fluorobicyclo[1.1.1]pentane-1-carboxamide] | 7.46 |
| CC(C)(C#N)Oc1ccc(-c2ccnc(N(CC34CCC(c5noc(C6(F)CC6)n5)(CC3)CC4)C(=O)OC(C)(C)C(F)(F)F)c2)cc1 [Example 625, 1,1,1-trifluoro-2-methylpropan-2-yl(4-(4-((2-cyanopropan-2-yl)oxy)phenyl)pyridin-2-yl) ((4-(5-(1-fluorocyclopropyl)-1,2,4-oxadiazol-3-yl)bicyclo[2.2.2]octan-1-yl)methyl) carbamate] | 7.74 |
| O=C(N(CC12CCC(c3noc(C(F)(F)F)n3)(CC1)CC2)c1cccc(C2CC2)c1)C12CC(F)(C1)C2 [Example 572, N-(3-cyclopropylphenyl)-3-fluoro-N-((4-(5-(trifluoromethyl)-1,2,4-oxadiazol-3-yl)bicyclo[2.2.2]octan-1-yl)methyl)bicyclo[1.1.1]pentane-1-carboxamide] | 6.84 |
| Cc1nc2cc(-c3cccc(N(CC45CCC(c6nc(C7CC7)no6)(CC4)CC5)C(=O)C45CC(F)(C4)C5)c3)ccc2s1 [Example 303, N-((4-(3-cyclopropyl-1,2,4-oxadiazol-5-yl)bicyclo[2.2.2]octan-1-yl)methyl)-3-fluoro-N-(3-(2-methylbenzo[d]thiazol-5-yl)phenyl)bicyclo[1.1.1]pentane-1-carboxamide] | 6.46 |
| CC(C)(C)c1nc(C23CCC(CN(C(=O)C45CC(F)(C4)C5)c4cncc(-c5ccc(OC(F)F)cn5)c4)(CC2)CC3)no1 [Example 486, N-((4-(5-(tert-butyl)-1,2,4-oxadiazol-3-yl)bicyclo[2.2.2]octan-1-yl)methyl)-N-(5-(difluoromethoxy)-[2,3′-bipyridin]-5′-yl)-3-fluorobicyclo[1.1.1]pentane-1-carboxamide] | 7.05 |
